In one assay the target is APE1 (Homo sapiens, UniProt P27695). The experiment in a line: biochemical.
The next assay addresses MTH1 (Homo sapiens, UniProt P36639). Briefly: biochemical.

pIC50: −log10 of the molar value. Values joined by “and” are separate entries in the source; they are usually repeats but may differ in a detail not shown here. Identical values can stand only once.

APE1, sequence (P27695 whole entry, species assumed): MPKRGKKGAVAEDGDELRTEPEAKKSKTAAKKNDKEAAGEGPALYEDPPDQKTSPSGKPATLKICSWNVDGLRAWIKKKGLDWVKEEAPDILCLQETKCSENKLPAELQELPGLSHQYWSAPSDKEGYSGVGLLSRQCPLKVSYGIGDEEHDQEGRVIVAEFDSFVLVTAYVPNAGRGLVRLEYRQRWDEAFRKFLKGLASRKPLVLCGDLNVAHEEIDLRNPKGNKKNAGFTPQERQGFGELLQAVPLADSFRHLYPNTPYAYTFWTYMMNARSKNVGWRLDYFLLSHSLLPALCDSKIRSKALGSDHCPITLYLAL
Description for APE1: Inhibition of the following enzymes was assessed in the selectivity assays: apurinic/apyrimidinic endonuclease (APE1), endonuclease 8-like 1 (NEIL1), oxidized purine nucleoside triphosphate hydrolase (MTH1) and single-strand selective monofunctional uracil DNA glycosylase (SMUG1). BER enzymes were assayed with a similar strategy as OGG1, using identical DNA sequences surrounding the substrate lesion and the same reaction buffer containing 2 nM APE1. To assess SMUG1 inhibition, a 375 nM substrate containing uracil opposite guanine and 0.3 U SMUG1 enzyme (M0336 from New England Biolabs) was used. To assess NEIL1 inhibition, a 20 nM substrate containing thymidine glycol opposite adenine and 10 nM NEIL1 was used. […] All BER inhibition assays were in the linear range and less than 40% of the total substrate had been consumed at readout. The experiments were performed in three independent replicates and the percentage inhibition was calculated relative to the signal of a DMSO-treated control. […] The produced free phosphate was then detected using the malachite green assay[76]. […] Absorbance was read at 630 nm using a Hidex Sense plate reader after a period of incubation with the methylene green reagent of 15 minutes. The experiment was performed in three independent replicates and percentage inhibition was calculated relative to the signal of a DMSO-treated control.
Description for MTH1: Inhibition of the following enzymes was assessed in the selectivity assays: apurinic/apyrimidinic endonuclease (APE1), endonuclease 8-like 1 (NEIL1), oxidized purine nucleoside triphosphate hydrolase (MTH1) and single-strand selective monofunctional uracil DNA glycosylase (SMUG1). BER enzymes were assayed with a similar strategy as OGG1, using identical DNA sequences surrounding the substrate lesion and the same reaction buffer containing 2 nM APE1. To assess SMUG1 inhibition, a 375 nM substrate containing uracil opposite guanine and 0.3 U SMUG1 enzyme (M0336 from New England Biolabs) was used. To assess NEIL1 inhibition, a 20 nM substrate containing thymidine glycol opposite adenine and 10 nM NEIL1 was used. To assess APE1 inhibition, an UNG2 substrate was pre-treated with E. coli Uracil-DNA glycosylase (New England Biolabs M0280) to generate an AP-site opposite adenine, which was used at 10 nM concentration in the presence of 0.1 nM APE1. All BER inhibition assays were in the linear range and less than 40% of the total substrate had been consumed at readout. The experiments were performed in three independent replicates and the percentage inhibition was calculated relative to the signal of a DMSO-treated control. To assess MTH1 inhibition, MTH1-catalyzed dGTP hydrolysis was coupled to inorganic pyrophosphatase (PPase), thereby releasing inorganic phosphate. The produced free phosphate was then detected using the malachite green assay[76]. […] Substrate concentration at the Km value for the respective substrate was chosen if possible. Inhibition using 100 μM compound was tested in reaction buffer (100 mM Tris-Acetate pH 8.0, 10 mM magnesium acetate, 40 mM NaCl, 1 mM DTT, and 0.005% Tween-20). Samples were incubated with shaking at 22 °C for 15 minutes. The reaction was then stopped by the addition of the malachite green reagent[76]. Absorbance was read at 630 nm using a Hidex Sense plate reader after a period of incubation with the methylene green reagent of 15 minutes. The experiment was performed in three independent replicates and percentage inhibition was calculated relative to the signal of a DMSO-treated control.

What is called pIC50 is −log10 of the IC50, conventionally taken in molar units. The low end stands for a high IC50, the high end for a low IC50. As for `Cc1nc(-c2ccc(CC(=O)Nc3noc4c3CCCC4)cc2)c(C)[nH]1` [compound 17], the negative logarithm of the IC50 (pIC50) at APE1 is under 4.00; against MTH1, 4.61 and 4.69 and 4.60.

Values taken from publication PMC11836371, “Virtual fragment screening for DNA repair inhibitors in vast chemical space” (Nature Communications, 2025).
